Consider 1 compound from patent US20250072441A1, “METHOD FOR PREPARING A COMESTIBLE NUTRIENT COMPOSITION AND USE THEREOF” (The Cultivated B. GmbH, priority 2022, published 2025).

Experiment [1] deals with HepG2 cells. Put plainly: cells. The settings on record: Homo sapiens, HepG2, 48 h.
Experimental: This cellular assay quantitates the amount of ATP that can be correlated to cell viability. HepG2 cells were supplied by ATCC (HB-8065), cultured in DMEM supplemented with 10% FBS and grown in a incubator set to 37° C. and 5% CO2. For both assays, cells were seeded at 5.000 cells/well in a 96-well plate using only the 32 central wells. Due to inherent clumping of HepG2 cells, amount of cells could not be properly measured and varied between assays. Various concentrations of Doxorubicin were added 18 hours after seeding to the cells at a volume of 0.2 μL of cells using IDOT. Cells were processed after 2 days of compound addition. The CellTiter-Glo 2.0 Cell Viability Assay (G9242, Promega) was used. The solution was thawed and stored at 4° C. as recommended. Cell medium was removed, then cells were washed 2× in 100 μL PBS. After the last wash, 50 μL of PBS followed by 50 μL of CellTiter-Glo 2.0 reagent were added. The 96-well plate was mixed for 2 min on an orbital shaker and incubated at 10 min at RT. Luminescence was recorded at a microplate reader, using a integration time of 1.000 ms. For both assays, data for dose-response experiments was fitted with the equation “Log(agonist) vs response−Variable slope (four parameters)” using Prism.
The subject of experiment [2] is HepG2 cells. The settings on record: read-out: IC50, expected literature value reported in the manual for the Neutral Red Assay; cited from earlier work.
Experiment [3] has as its system HepG2 cells. The experiment is described as follows: Neutral Red Assay, cell viability/cytotoxicity. Conditions: Homo sapiens, 48 h, 2 days after compound addition, n=3. It is filed as cell-based.
Experimental: It is a cellular assay that is based on a eurhodin dye that stains the lysosomes of viable cells. HepG2 cells were supplied by ATCC (HB-8065), cultured in DMEM supplemented with 10% FBS and grown in a incubator set to 37° C. and 5% CO2. For both assays, cells were seeded at 5.000 cells/well in a 96-well plate using only the 32 central wells. Due to inherent clumping of HepG2 cells, amount of cells could not be properly measured and varied between assays. […] Cells were processed after 2 days of compound addition. The Neutral Red Assay Kit—Cell Viability/Cytotoxicity (ab234039, Abcam) was used. All solutions of the kit were aliquoted and stored at −20° C. as recommended. […] Cell medium was removed and cells washed with 200 μL of 1× washing solution. After addition of 150 μL of 1× Neutral Red Staining Solution, cells were stained for 2 hours in the incubator. Cells were washed with 250 μL of 1× washing solution, and then air dried for approx. 10 min until no liquid was visible on the plate. Addition of 150 μL 1× solubilization solution was followed by shaking the plate for 20 min at 500 rpm and RT. The 96-well plate was then read at a microplate reader at an OD of 540 nm.

The term IC50 denotes the concentration that inhibits the measured activity by half.

Read-outs that look alike come from different tables or passages of the source.

`COc1cccc2c1C(=O)c1c(O)c3c(c(O)c1C2=O)C[C@@](O)(C(=O)CO)C[C@@H]3O[C@H]1C[C@H](N)[C@H](O)[C@H](C)O1` [Doxorubicin]: the IC50 in the experiment on HepG2 cells [1] was 116 nM; in the experiment with HepG2 cells [2] it was 690 nM; in the experiment on HepG2 cells [3], 79 nM.
